Data: US20240079083A1, “USING BIPARTITE NETWORKS TO DETERMINE INTERACTIONS BETWEEN ANALYTES AND CHEMICAL TREATMENTS” (UT-Battelle, LLC, priority 2022, published 2024)

Assays:
Aspergillus fumigatus [1] = assay: Direct route: production of known and putative specialized metabolites under exogenous treatments, 25° C. (targeted LC-MS, bipartite network); format: cell-based; conditions: for broadcasting PageRank of the treatments: minimum-maximum normalized; for broadcasting PageRank of the treatments / node out-strength of the treatments (effect on triggering metabolite production): rank among treatments
Text: (§1) Several examples of a bipartite network framework of treatments and metabolomic outputs will now be described. Bipartite networks are built to quantify the relationship between metabolites and the sources triggering their production, such as various exogenous biomolecules or compounds. As discussed above, a bipartite network (or graph) is a collection of nodes connected by lines named edges. The nodes represent the entities or elements of a system, and the edges represent the interaction or relationship amongst the features. For example, in cell metabolism, a metabolic network represents the biochemical reactions amongst substrates that result in products. The nodes of the metabolic network represent the substrates, and the edges represent the metabolic reactions amongst the substrates. For example, this framework can assess the effect of exogenous compounds on the production of specialized microbial metabolites. The nodes can be classified into two types: the treatments and the specialized metabolites, resulting in a bipartite network. The edges represent the magnitude of up- or down-regulation of specialized metabolites caused by the treatments compared to a controlled case (measured by the magnitude of log2 fold change using processed spectral data from targeted LC-MS analysis).
The bipartite network provides an in-depth quantification and clear visual representation of a treatment's ability to trigger the production of various specialized metabolites. Two routes are provided to assess specialized metabolite production using the bipartite network formulation, as shown in FIG. 15. The first is the direct route 1502 to determine the biosynthesis of known and putative metabolites, whereas the second is the auxiliary route 1504 to assess the production of unknown analytes. In the direct route 1502, the network nodes include treatments that elucidate known and putative metabolites by a microbe. Network centrality measurements 1506 are used to rank the treatments and the specialized metabolites. Those measurements can be used to identify the most influential nodes in the bipartite network. […] The treatments can be ranked based on their capability to trigger metabolite production, and the metabolites can be classified based on their popularity in being activated by various treatments. In the auxiliary route, the bipartite networks are built using analyte peaks extracted from post-processed spectral data. Further, the systems and methods of the present disclosure analyze the edges and neighborhoods of nodes to distinguish unique analytes among the total pool.
The bipartite network framework was used in this example to reveal the effect of various chitooligosaccharides and lipid treatments on triggering the production of specialized metabolites in Aspergillus fumigatus. Various chitooligosaccharides and lipids were applied as exogenous treatments since they are common constituents found in most fungi. Moreover, it has been previously shown that lipids influence fungal metabolomics; however, the impacts of chitooligosaccharides have remained unknown. In contrast, chitooligosaccharides are reported to have antifungal activity, which might potentially influence the metabolomic profile in Aspergillus species. This example highlights the influence of temperature on the production of specialized metabolites by conducting the experiments at 25 and 37° C. Aspergillus fumigatus is generally examined at 25° C. to explore the extent of its metabolomic capabilities or its lifestyle as a soilborne saprotroph that recycles environmental carbon and nitrogen. However, the fungus is also an opportunistic human pathogen and is commonly examined at 37° C. for its ability to cause aspergillosis, a lung disease found in immunocompromised patients. […]

Aspergillus fumigatus [2] = assay: Auxiliary route: untargeted metabolomic profiling of the treatments, 25° C. (FCROS, bipartite network); format: cell-based
Text: (§2) The auxiliary route follows an untargeted metabolomic profiling of the treatments. […] In the direct route, a peak area cutoff of 5×10^5 was used to detect signals with significant peaks between a treatment and solvent control. Although their peak area cutoff of 5×10^5 eliminates most noise, it is a linear cutoff and leaves some residual noise in the analysis due to column creep. Therefore, the dataset for the auxiliary route can be curated from the experimental study using baseline correction preprocessing tools. Following the processes defined by “Dynamics of Metabolite Induction in Fungal Co-cultures by Metabolomics at Both Volatile and Non-volatile Levels”, Front. Microbiol., 5 Feb. 2018 Sec. Antimicrobials, Resistance and Chemotherapy, Azzollini et al., peaks can be picked using GridMass and aligned using RANSAC alignment or another suitable alignment tool. Peak data can then be matched to known profiles in KEGG and LipidMap.
(§3) Peak significance was determined upon FCROS scoring. Non-significant analytes were not included in the network. An interactive map of the network illustrating the details of each analyte (m/z ratio, retention times, p-values, etc.) can be generated.
The untargeted extraction of statistically relevant peaks using the auxiliary route can yield a significant number of analytes for potential exploration. The edges and neighbors of the nodes in the network can be used to determine which analytes to be first considered for targeted exploration. Analytes of particular interest express both […] depending on the treatment considered. Additionally, analytes of extreme up- and down-regulation can be of interest along with the node degree values of the analytes. FIG. 13D illustrates significant peaks with log2 fold change greater than 1 or less than −1. The total number of interactions (edges in the network) found with the auxiliary route is considerably higher compared to the network in the direct route. […] At 25 C, analytes ID 26 and ID 105 were matched to fraxetin via the KEGG database query. […] Analyte ID 222 was matched to ICAS #18 from the LipidMap database. […] At the same time, no single highly produced analyte is triggered by all three chitooligosaccharides.

Aspergillus fumigatus [3] = assay: Direct route: production of specialized metabolites under exogenous treatments, 37° C.; format: cell-based
Text: as §1
The bipartite network provides an in-depth quantification and clear visual representation of a treatment's ability to trigger the production of various specialized metabolites. Two routes are provided to assess specialized metabolite production using the bipartite network formulation, as shown in FIG. 15. The first is the direct route 1502 to determine the biosynthesis of known and putative metabolites, whereas the second is the auxiliary route 1504 to assess the production of unknown analytes. In the direct route 1502, the network nodes include treatments that elucidate known and putative metabolites by a microbe. Network centrality measurements 1506 are used to rank the treatments and the specialized metabolites. […]

Aspergillus fumigatus [4] = assay: Auxiliary route: untargeted analytes under the treatments, 37° C.; format: cell-based
Text: as §2, §3
Considering the analytes from the network at 37° C. shown in FIG. 14D, twelve significant analyte peaks with log2 fold change intensities greater than 1 were extracted from the processed data. All three CO treatments at 37° C. triggered no shared analytes. Nor did the two lipid treatments trigger a shared analyte. Ten of the twelve analytes with log2 fold change intensities greater than 1 or less than −1 are uniquely triggered by a single treatment (i.e., analytes with node degree 1), as shown in FIG. 14D. Of the twelve significant extracted analyte peaks, eleven were identified from database queries. Analytes identified by KEGG were putative metabolites, hellebrigenin 3-acetate (ID 10), fraxetin (ID 16), beta-cyclopiazonate (ID 70), phenylbutazone (ID 71), borrerine (ID 89), clofibrate (ID 110), alangimarine (IDs 163 and 164), and sulindac (IDs 168 and 169). LipidMaps identified 6′-hydroxysiphonaxanthin decenoate (ID 21). […] There are no connections in ID numbers between the 25° C. and 37° C. experiments.

Aspergillus fumigatus [5] = conditions: 37° C.; cited from earlier work

SMILES	number of metabolites triggered (Aspergillus fumigatus [1])	number of unique metabolites triggered (Aspergillus fumigatus [1])	broadcasting PageRank of the treatments (Aspergillus fumigatus [1])	node out-strength of the treatments (effect on triggering metabolite production) (Aspergillus fumigatus [1])	production of analyte 16 (Aspergillus fumigatus [2])	effectiveness of treatment at triggering metabolite production (node strength and PageRank) (Aspergillus fumigatus [3])	regulation of analyte 163 (Aspergillus fumigatus [4])	regulation of analyte 168 (Aspergillus fumigatus [4])	regulation of fraxetin (analytes ID 26 and ID 105) (Aspergillus fumigatus [2]; log2 fold change greater than 1 or less than −1)	regulation of analyte ID 90 (Aspergillus fumigatus [4])	broadcasting PageRank of the treatments (Aspergillus fumigatus [1]; listed as Oleic acid)	germination (Aspergillus fumigatus [5])	regulation of ICAS #18 (analyte ID 222) (Aspergillus fumigatus [2]; with respect to the control)
CC(=O)N[C@H]1[C@H](O[C@H]2[C@H](O)[C@@H](NC(C)=O)C(O)O[C@@H]2CO)O[C@H](CO)[C@@H](O[C@@H]2O[C@H](CO)[C@@H](O[C@@H]3O[C@H](CO)[C@@H](O)[C@H](O)[C@H]3NC(C)=O)[C@H](O)[C@H]2NC(C)=O)[C@@H]1O (some centres unmarked) [CO4]	six	two	most effective treatment	highest effect on triggering metabolite production	significantly produced	poor at triggering the production of metabolites	downregulated	downregulated					
CC(=O)N[C@H]1[C@H](O[C@H]2[C@H](O)[C@@H](NC(C)=O)[C@H](O[C@H]3[C@H](O)[C@@H](NC(C)=O)C(O)O[C@@H]3CO)O[C@@H]2CO)O[C@H](CO)[C@@H](O[C@@H]2O[C@H](CO)[C@@H](O[C@@H]3O[C@H](CO)[C@@H](O)[C@H](O)[C@H]3NC(C)=O)[C@H](O)[C@H]2NC(C)=O)[C@@H]1O (some centres unmarked) [CO5]		one			significantly produced				upregulated	upregulated			
CC(=O)N[C@H]1[C@H](O[C@H]2[C@H](O)[C@@H](NC(C)=O)[C@H](O[C@H]3[C@H](O)[C@@H](NC(C)=O)[C@H](O[C@H]4[C@H](O)[C@@H](NC(C)=O)C(O)O[C@@H]4CO)O[C@@H]3CO)O[C@@H]2CO)O[C@H](CO)[C@@H](O[C@@H]2O[C@H](CO)[C@@H](O[C@@H]3O[C@H](CO)[C@@H](O[C@@H]4O[C@H](CO)[C@@H](O[C@@H]5O[C@H](CO)[C@@H](O)[C@H](O)[C@H]5NC(C)=O)[C@H](O)[C@H]4NC(C)=O)[C@H](O)[C@H]3NC(C)=O)[C@H](O)[C@H]2NC(C)=O)[C@@H]1O (some centres unmarked) [CO8]			followed by CO8	minor influence on inducing metabolite production			upregulated						
CCCCCCCC/C=C\CCCCCCCC(=O)O [oleic acid]	five	two		then oleic acid		poor at triggering the production of metabolites		downregulated			higher broadcasting PageRank value than CO5	inducer of germination	
CCCCCCCCCCCCCCCC(=O)O [palmitic acid]			least broadcasting PageRank measure	minor influence on inducing metabolite production		most effective treatment on metabolite production	upregulated	upregulated		upregulated			significantly down regulates
